Consider 29 compounds from ChEMBL document CHEMBL1146082, “Development of a structural model for NF-kappaB inhibition of sesquiterpene lactones using self-organizing neural networks” (J Med Chem, 2006).

The target of this experiment is Transcription factor p65 (Homo sapiens) (UniProt Q04206). Kind of experiment: Inhibition of NF-kappaB DNA binding by EMSA.
Sequence of Transcription factor p65 (Homo sapiens) (Q04206 whole entry): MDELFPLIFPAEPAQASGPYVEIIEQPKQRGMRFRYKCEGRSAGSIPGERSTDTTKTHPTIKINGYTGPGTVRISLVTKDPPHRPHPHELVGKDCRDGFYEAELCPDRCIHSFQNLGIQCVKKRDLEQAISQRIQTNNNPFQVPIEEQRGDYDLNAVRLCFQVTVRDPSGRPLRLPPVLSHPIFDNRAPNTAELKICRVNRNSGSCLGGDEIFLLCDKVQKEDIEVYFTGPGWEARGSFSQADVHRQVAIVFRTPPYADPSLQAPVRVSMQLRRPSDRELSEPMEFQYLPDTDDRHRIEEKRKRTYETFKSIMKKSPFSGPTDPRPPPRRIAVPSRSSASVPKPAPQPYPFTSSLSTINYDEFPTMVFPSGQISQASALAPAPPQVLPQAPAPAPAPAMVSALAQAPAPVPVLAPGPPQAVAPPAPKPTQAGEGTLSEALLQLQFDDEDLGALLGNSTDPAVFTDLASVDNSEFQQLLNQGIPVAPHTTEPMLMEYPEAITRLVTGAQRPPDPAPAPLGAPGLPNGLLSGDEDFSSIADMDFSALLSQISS

For the compound `C=C1C(=O)O[C@H]2C/C(CO)=C/CC/C(COC(=O)C(C)C)=C/C[C@H]12`, the IC100 was determined as 50 µM.
In the case of `C=C(C)C(=O)O[C@@H]1C[C@]2(C)CC[C@@](O)(O2)/C(C)=C\[C@H]2OC(=O)C(=C)[C@@H]21`, the IC100 turned out to be 50 µM.
Under `C=C(CO)C(=O)OC/C1=C\C[C@@H]2C(=C)C(=O)O[C@H]2C/C(CO)=C/CC1` stands 20 µM.
For `C=C1C(=O)O[C@@H]2C[C@@H](C)[C@@H]3CCC(=O)[C@@]3(C)C[C@H]12` the value was 50 µM; for `C=C(C)C(=O)O[C@@H]1/C=C(/C=O)CCC[C@@]2(CO2)[C@H](O)[C@H]2OC(=O)C(=C)[C@@H]21`, 5 µM.
For `C=C1C(=O)O[C@@H]2[C@H]3C(C)=CC[C@@H](O)[C@]3(C)CC[C@@H]12` the value was 100 µM; for `C=C1C(=O)O[C@H]2[C@H]1[C@H](OC(=O)[C@@]1(C)O[C@H]1C)[C@@H](OC(C)=O)/C(C(=O)OC)=C\CC[C@@]1(C)O[C@H]21`, 10 µM.
Consider `C=C1C(=O)O[C@@H]2/C=C(/C)[C@]3(O)O[C@](C)(C[C@@H](OC(=O)C(C)C)[C@@H]12)C(=O)[C@@H]3OC`, for which the IC100 is 200 µM.
For `C=C(C)C(=O)O[C@@H]1C[C@](C)(O)[C@@H]2C(=O)C=C(C)[C@@H]2[C@H]2OC(=O)C(=C)[C@@H]21`, the IC100 is 50 µM.
In the case of `C=C(C)C(=O)O[C@H]1/C(C=O)=C\CC/C(C)=C/[C@H]2OC(=O)C(=C)[C@@H]2[C@@H]1O`, the IC100 was 5 µM.
In turn, `C=C1C(=O)O[C@H]2C/C(CO)=C/CC/C(COC(=O)C3(C)CO3)=C/C[C@H]12` (some centres undefined) had an IC100 of 50 µM.
The compound `CC(=O)O[C@H]1[C@@H]2[C@H](C)C(=O)O[C@@H]2C[C@@H](C)[C@@H]2C=CC(=O)[C@]21C` yielded an IC100 of 200 µM.
For `C=C1C(=O)O[C@@H]2/C=C(/C)C3=CC(=O)[C@@](C)(C[C@@H](OC(=O)/C(C)=C/C)[C@@H]12)O3` the value was 5 µM; for `C=C1C(=O)O[C@@H]2C[C@H](C)[C@@H]3CC(=O)C(C)=C3C[C@H]12`, 50 µM; for `C=C(C)C(=O)O[C@@H]1C[C@]2(C)CC[C@@](OC)(O2)/C(C)=C\[C@H]2OC(=O)C(=C)[C@@H]21`, 200 µM.
The compound `C=C(C)C(=O)O[C@@H]1CC(C)=C2C(=O)C=C(C)[C@@H]2[C@H]2OC(=O)C(=C)[C@@H]21` gave an IC100 of 10 µM.
The compound `C=C1C(=O)O[C@@H]2C[C@@H](C)[C@@H]3C=CC(=O)[C@@]3(C)[C@@H](O)[C@H]12` showed an IC100 of 10 µM.
Under `C=C1C(=O)O[C@@H]2/C=C(\C)CC/C=C(\C)CC[C@@H]12` stands 50 µM.
Regarding `C=C1C(=O)O[C@H]2C[C@H](C)C3=CC(=O)[C@H](C)C3C[C@H]12` (some centres undefined), the IC100 is 20 µM.
Regarding `C=C1C(=O)O[C@@H]2/C=C(/CO)[C@@]3(O)CC[C@@](C)(C[C@@H](OC(=O)/C(C)=C\C)[C@@H]12)O3`, the IC100 was 20 µM.
Under `C=C(C)C(=O)O[C@@H]1C[C@@](C)(O)[C@@H]2C(=O)C=C(C)[C@@H]2[C@H]2OC(=O)C(=C)[C@@H]21` stands 20 µM; under `C=C1C(=O)O[C@@H]2C3=C(C(=O)C[C@@H]3C)[C@@H](C)CC[C@@H]12`, 20 µM.
Turning to `C=C1[C@@H]2[C@H]3OC(=O)C(=C)[C@@H]3CCC(=C)[C@@H]2C[C@@H]1OC(=O)C=C(C)C`, the IC100 stood at 200 µM.
`C=C1C(=O)O[C@@H]2/C=C(\C)CC/C=C(\C)[C@@H](OC(C)=O)C[C@@H]12` registered an IC100 of 200 µM.
In turn, `C=C(C)C(=O)O[C@H]1/C(C=O)=C\CC/C(COC(C)=O)=C/[C@H]2OC(=O)C(=C)[C@@H]2[C@@H]1O` gave an IC100 of 5 µM.
In the case of `C=C(C)C(=O)O[C@H]1C[C@@]2(C)OC(=CC2=O)C(=C)[C@@H](O)[C@H]2OC(=O)C(=C)[C@@H]21`, the IC100 came out at 10 µM.
The compound `C=C1C(=O)O[C@H]2/C=C(\C)CC/C=C(\C)[C@@H](OC(=O)[C@@]3(C)O[C@H]3C)[C@H](O)[C@@H]12` displayed an IC100 of 50 µM.
For `C=C1C(=O)O[C@@H]2/C=C(/CO)C3=CC(=O)[C@@](C)(C[C@@H](OC(=O)/C(C)=C/C)[C@@H]12)O3` the value was 5 µM.
Compound `C=C1C(=O)O[C@@H]2[C@@H]3[C@@](C)(CC[C@@H]12)[C@@H](O)C[C@H]1O[C@@]31C` displayed an IC100 of 200 µM.
